Reference: patent publication US12257264B2, “Combination therapy for HIV with adenosine derivative and capsid inhibitors” (Brii Biosciences, Inc., priority 2021, dated 2025)

Assay: Plasma exposures following IV infusion alone or in combination to Sprague-Dawley rats
Conditions: for concentration at 0.25 h: 0.250 hrs; for concentration at 0.5 h: 0.500 hrs
Method: The pharmacokinetics of EFdA and prodrug formula 4-A, as well as lenacapavir were studied in rats after IV infusion administration alone or in combination at a dose of 1.0 mg/kg each.
Formulations: The prodrugs and lenacapavir were formulated alone or in combination as solutions at 1.0 mg/mL each in 20% […], 10% Solutol aqueous solution within 0.5 hour prior to dose.
Dose Administration and Sample Collection: The in-life phase of this study was conducted at the WuXi Apptec (WuXi) at Shanghai, China in accordance with the WuXi Institutional Animal Care and Use Committee (IACUC) standard animal procedures along with the IACUC guidelines that are in compliance with the Animal Welfare Act, the Guide for the Care and Use of Laboratory Animals. and was approved by the IACUA Committee. Male Sprague-Dawley rats (0.262+/−0.019 kg) were used for the studies. Each drug was administered as a single dose by 30-min IV infusion (1 ml/kg) alone or in combination. Plasma samples were collected at 0 (pre-dose), 5, 10, 15 and 30 min, 1, 2, 4, 7, 12 and 24 h post-dose. Blood (approximately 0.1 mL) was processed immediately for plasma by centrifugation at 3,200 g at 4° C. for 10 min within half an hour of collection. Plasma samples were frozen and maintained at −70° C. until analyzed. To stabilize the prodrug at the sample collection and subsequent analysis, the following stabilizing reagents were added to the blood collection K2EDTA tubes on wet ice prior to sample collection: for each 100 mL of blood, 10 mL of premade inhibitor cocktail consists of 600 mM Citric Acid, 400 mM PMSF, 400 mM NaF, and 400 mM Dichlorvos.
Determination of EFdA and Prodrugs in plasma: Briefly, plasma (20 μL) was mixed with 100 l acetonitrile to precipitate protein. Consistent with sample collection procedure, the same cocktail protocol was also added to stabilize the prodrug in the standard and QC samples.
Bioanalysis: A Sciex API-6500 Plus triplequadrupole mass spectrometer coupled with a Waters Acquity UPLC system (Framingham, MA 01701) was used for quantitative analysis of plasma samples. The column was a Waters HSS T3 column (2.1×50 mm, 1.8 micrometer). The mobile phases used were: A, 0.1% formic acid in water; B, 0.1% formic acid in acetonitrile. For the analysis of EFdA and prodrugs in plasma, the flow rate was 0.6 mL/min with a total run time of 2.0 min. […] Detection of the prodrug and EFdA were achieved using positive ion electrospray mass spectroscopic mode using unit resolution mode. Multiple reaction monitoring (MRM) modes were used to quantify both prodrug and EFdA, e.g. the MRM transition for EFdA was 294.0-154.2 Da, and the transition for prodrug 4-A was 449.3-164.9 Da. For the analysis of lenacapavir in plasma, the flow rate was 0.7 mL/min with a total run time of 1.5 min. The HPLC gradient was initiated at 95% A/5% B for 0.50 min, followed by linear gradient increase to […] over the next 0.2 min; the gradient was subsequently maintained at 100% of mobile B over the next 0.7 min before ramping down to 95% mobile phase A within the following 0.1 min. Detection of lenacapavir was achieved using positive ion electrospray mass spectroscopic mode using unit resolution mode. Multiple reaction monitoring (MRM) modes were used to quantify lenacapavir, e.g. the MRM transition for lenacapavir was 968.1-869.4 Da. Peak areas were integrated by the Sciex program Analyst®, version 1.6.3, operating on a Windows 7 computer where concentrations were determined by a weighted (1/x2) linear regression of peak area ratios (peak area of EFdA/peak area of corresponding IS) versus the nominal concentrations of the plasma calibration standards. Calculations were performed on unrounded numbers. Overall, Analyst® determined the precision and accuracy for the calibration standards and QC samples.

[1] = male, Sprague-Dawley, rat, in vivo, 1 mg/kg, Lenacapavir Concentrations in Rat Plasma When Dosed Alone, Lenacapavir IV infusion 1.0 mg/kg alone, individual animals
[2] = male, Sprague-Dawley, rat, in vivo, 1 mg/kg, Lenacapavir Concentrations in Rat Plasma When Dosed Alone, Lenacapavir IV infusion 1.0 mg/kg alone, Mean
[3] = male, Sprague-Dawley, rat, in vivo, Lenacapavir Concentrations in Rat Plasma When Dosed with Prodrug formula 4-A, Lenacapavir IV infusion 1.0 mg/kg with Prodrug formula 4-A, Mean
[4] = male, Sprague-Dawley, rat, in vivo, iv, 1 mg/kg

CC(C)(C#Cc1ccc(-c2ccc(Cl)c3c(NS(C)(=O)=O)nn(CC(F)(F)F)c23)c([C@H](Cc2cc(F)cc(F)c2)NC(=O)Cn2nc(C(F)(F)F)c3c2C(F)(F)[C@@H]2C[C@H]32)n1)S(C)(=O)=O [Lenacapavir, reference compound]
concentration at 0.25 h [1]: 796 ng/mL | concentration at 0.5 h [2]: 789 ng/mL | concentration at 0.5 h [1]: 980 ng/mL | concentration at 1 h [2]: 222 ng/mL | concentration at 1 h [1]: 261 ng/mL | concentration at 2 h [2]: 150 ng/mL | concentration at 2 h [1]: 181 ng/mL | concentration at 4 h [2]: 156 ng/mL | concentration at 4 h [1]: 171 ng/mL | concentration at 7 h [2]: 138 ng/mL | concentration at 12 h [2]: 117 ng/mL | concentration at 12 h [1]: 145 ng/mL | concentration at 24 h [2]: 136 ng/mL | concentration at 24 h [1]: 141 ng/mL | concentration at 72 h [2]: 69.6 ng/mL | concentration at 0.083 h (male, Sprague-Dawley, rat, in vivo, Lenacapavir Concentrations in Rat Plasma When Dosed with Prodrug formula 4-A, Lenacapavir IV infusion 1.0 mg/kg with Prodrug formula 4-A, 0.0830 hrs, Mean): 413 ng/mL | concentration at 0.167 h (male, Sprague-Dawley, rat, in vivo, Lenacapavir Concentrations in Rat Plasma When Dosed with Prodrug formula 4-A, Lenacapavir IV infusion 1.0 mg/kg with Prodrug formula 4-A, 0.167 hrs, Mean): 507 ng/mL | concentration at 0.25 h [3]: 590 ng/mL | concentration at 0.5 h [3]: 645 ng/mL | concentration at 1 h [3]: 162 ng/mL | concentration at 2 h [3]: 127 ng/mL | concentration at 4 h [3]: 93.5 ng/mL | concentration at 7 h [3]: 93 ng/mL | concentration at 12 h [3]: 128 ng/mL | concentration at 24 h [3]: 133 ng/mL | concentration at 72 h [3]: 83.3 ng/mL | AUC [4]: 7980 ng·h/mL | Cmax [4]: 903 ng/mL | Pharmacokinetic profile of lenacapavir on co-administration of prodrugs, e.g. formula 4-A (rats, IV infusion): not affected
